Assay results reported in patent US20150094474A1, “AGRICULTURAL CHEMICALS” (Redx Pharma Ltd., priority 2012, published 2015).

Columns and labels:
peas = test: Herbicidal bioassay, peas (% necrosis); type: in vivo
Method in brief: (§1)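 Scoring of % necrosis followed EPPO guideline PP1/135 at specified growth intervals, five replicates per species and treatment. Plants at the 2-4 true leaf stage received Potter-tower sprays of DMSO-diluted compounds across six levels from 0.0001% to 0.05%, with water and DMSO controls.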

barley = test: Herbicidal bioassay, barley (% necrosis); type: in vivo
Method in brief: as §1

CC(/C=N/O)Oc1ccc(Oc2ccc(C(F)(F)F)cn2)cc1 (stereo not drawn) [Compound 64, (1E)-2-[4-[[5-(Trifluoromethyl)-2-pyridyl]oxy]phenoxy]propanal oxime]
C (less than 50% necrosis): Sum of % necrosis in Peas (peas; Dose 0.000001, Day 0) | Sum of % necrosis in Peas (peas; Dose 0.000001, Day 1) | Sum of % necrosis in Peas (peas; Dose 0.000001, Day 3) | Sum of % necrosis in Peas (peas; Dose 0.000001, Day 7) | Sum of % necrosis in Peas (peas; Dose 0.000001, Day 10) | Sum of % necrosis in Peas (peas; Dose 0.000001, Day 14) | Sum of % necrosis in Peas (peas; Dose 0.000005, Day 0) | Sum of % necrosis in Peas (peas; Dose 0.000005, Day 1) | Sum of % necrosis in Peas (peas; Dose 0.000005, Day 3) | Sum of % necrosis in Peas (peas; Dose 0.000005, Day 7) | Sum of % necrosis in Peas (peas; Dose 0.000005, Day 10) | Sum of % necrosis in Peas (peas; Dose 0.000005, Day 14) | Sum of % necrosis in Peas (peas; Dose 0.000005, Day 21) | Sum of % necrosis in Peas (peas; Dose 0.00001, Day 0) | Sum of % necrosis in Peas (peas; Dose 0.00001, Day 1) | Sum of % necrosis in Peas (peas; Dose 0.00001, Day 3) | Sum of % necrosis in Peas (peas; Dose 0.00001, Day 7) | Sum of % necrosis in Peas (peas; Dose 0.00001, Day 10) | Sum of % necrosis in Peas (peas; Dose 0.00005, Day 0) | Sum of % necrosis in Peas (peas; Dose 0.00005, Day 1) | Sum of % necrosis in Peas (peas; Dose 0.00005, Day 3) | Sum of % necrosis in Peas (peas; Dose 0.00005, Day 7) | Sum of % necrosis in Peas (peas; Dose 0.00005, Day 10) | Sum of % necrosis in Peas (peas; Dose 0.00005, Day 14) | Sum of % necrosis in Peas (peas; Dose 0.00005, Day 21) | Sum of % necrosis in Peas (peas; Dose 0.0001, Day 0) | Sum of % necrosis in Peas (peas; Dose 0.0001, Day 1) | Sum of % necrosis in Peas (peas; Dose 0.0001, Day 3) | Sum of % necrosis in Peas (peas; Dose 0.0001, Day 7) | Sum of % necrosis in Peas (peas; Dose 0.0001, Day 10) | Sum of % necrosis in Peas (peas; Dose 0.0005, Day 0) | Sum of % necrosis in Peas (peas; Dose 0.0005, Day 1) | Sum of % necrosis in Peas (peas; Dose 0.0005, Day 3) | Sum of % necrosis in Peas (peas; Dose 0.0005, Day 7) | Sum of % necrosis in Peas (peas; Dose 0.0005, Day 10) | Sum of % necrosis in Peas (peas; Dose 0.0005, Day 14) | Sum of % necrosis in barley (barley; Dose 0.000001, Day 0) | Sum of % necrosis in barley (barley; Dose 0.000001, Day 1) | Sum of % necrosis in barley (barley; Dose 0.000001, Day 3) | Sum of % necrosis in barley (barley; Dose 0.000001, Day 7) | Sum of % necrosis in barley (barley; Dose 0.000001, Day 10) | Sum of % necrosis in barley (barley; Dose 0.000001, Day 14) | Sum of % necrosis in barley (barley; Dose 0.000001, Day 21) | Sum of % necrosis in barley (barley; Dose 0.000005, Day 0) | Sum of % necrosis in barley (barley; Dose 0.000005, Day 1) | Sum of % necrosis in barley (barley; Dose 0.000005, Day 3) | Sum of % necrosis in barley (barley; Dose 0.000005, Day 7) | Sum of % necrosis in barley (barley; Dose 0.000005, Day 10) | Sum of % necrosis in barley (barley; Dose 0.000005, Day 14) | Sum of % necrosis in barley (barley; Dose 0.000005, Day 21) | Sum of % necrosis in barley (barley; Dose 0.00001, Day 0) | Sum of % necrosis in barley (barley; Dose 0.00001, Day 1) | Sum of % necrosis in barley (barley; Dose 0.00001, Day 3) | Sum of % necrosis in barley (barley; Dose 0.00001, Day 7) | Sum of % necrosis in barley (barley; Dose 0.00001, Day 10) | Sum of % necrosis in barley (barley; Dose 0.00001, Day 14) | Sum of % necrosis in barley (barley; Dose 0.00001, Day 21) | Sum of % necrosis in barley (barley; Dose 0.00005, Day 0) | Sum of % necrosis in barley (barley; Dose 0.00005, Day 1) | Sum of % necrosis in barley (barley; Dose 0.00005, Day 3) | Sum of % necrosis in barley (barley; Dose 0.00005, Day 7) | Sum of % necrosis in barley (barley; Dose 0.00005, Day 10) | Sum of % necrosis in barley (barley; Dose 0.00005, Day 14) | Sum of % necrosis in barley (barley; Dose 0.00005, Day 21) | Sum of % necrosis in barley (barley; Dose 0.0001, Day 0) | Sum of % necrosis in barley (barley; Dose 0.0001, Day 1) | Sum of % necrosis in barley (barley; Dose 0.0001, Day 3) | Sum of % necrosis in barley (barley; Dose 0.0001, Day 7) | Sum of % necrosis in barley (barley; Dose 0.0001, Day 10) | Sum of % necrosis in barley (barley; Dose 0.0001, Day 14) | Sum of % necrosis in barley (barley; Dose 0.0001, Day 21) | Sum of % necrosis in barley (barley; Dose 0.0005, Day 0) | Sum of % necrosis in barley (barley; Dose 0.0005, Day 1) | Sum of % necrosis in barley (barley; Dose 0.0005, Day 3) | Sum of % necrosis in barley (barley; Dose 0.0005, Day 7)
A (over 80% necrosis): Sum of % necrosis in Peas (peas; Dose 0.00001, Day 21) | Sum of % necrosis in Peas (peas; Dose 0.0001, Day 21) | Sum of % necrosis in Peas (peas; Dose 0.0005, Day 21)
B (50%-80% necrosis): Sum of % necrosis in Peas (peas; Dose 0.000001, Day 21) | Sum of % necrosis in Peas (peas; Dose 0.00001, Day 14) | Sum of % necrosis in Peas (peas; Dose 0.0001, Day 14) | Sum of % necrosis in barley (barley; Dose 0.0005, Day 10) | Sum of % necrosis in barley (barley; Dose 0.0005, Day 14) | Sum of % necrosis in barley (barley; Dose 0.0005, Day 21)
